This is an account of results in publication PMC5076878 (Bioorganic & medicinal chemistry letters, 2016).

Where “and” joins values, the source holds several entries; their conditions need not be identical. Identical values can stand only once.

What is called inhibition is the percentage by which the read-out fell short of the control.

T1 sequence (Q01650 whole entry): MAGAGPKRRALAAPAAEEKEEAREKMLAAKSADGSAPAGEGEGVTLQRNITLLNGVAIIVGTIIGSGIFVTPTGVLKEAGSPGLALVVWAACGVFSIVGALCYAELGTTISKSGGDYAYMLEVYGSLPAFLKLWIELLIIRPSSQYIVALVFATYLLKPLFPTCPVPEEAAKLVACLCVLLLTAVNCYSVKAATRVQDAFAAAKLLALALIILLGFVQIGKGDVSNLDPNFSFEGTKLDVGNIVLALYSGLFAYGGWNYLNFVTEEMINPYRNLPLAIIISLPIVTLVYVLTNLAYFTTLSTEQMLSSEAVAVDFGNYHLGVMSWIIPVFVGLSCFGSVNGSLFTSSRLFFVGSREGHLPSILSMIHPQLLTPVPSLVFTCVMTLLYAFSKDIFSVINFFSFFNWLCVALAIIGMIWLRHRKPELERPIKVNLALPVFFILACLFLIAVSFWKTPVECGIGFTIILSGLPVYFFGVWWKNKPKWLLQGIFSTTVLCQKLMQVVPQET
T1 sequence (P08195 102-630 partner): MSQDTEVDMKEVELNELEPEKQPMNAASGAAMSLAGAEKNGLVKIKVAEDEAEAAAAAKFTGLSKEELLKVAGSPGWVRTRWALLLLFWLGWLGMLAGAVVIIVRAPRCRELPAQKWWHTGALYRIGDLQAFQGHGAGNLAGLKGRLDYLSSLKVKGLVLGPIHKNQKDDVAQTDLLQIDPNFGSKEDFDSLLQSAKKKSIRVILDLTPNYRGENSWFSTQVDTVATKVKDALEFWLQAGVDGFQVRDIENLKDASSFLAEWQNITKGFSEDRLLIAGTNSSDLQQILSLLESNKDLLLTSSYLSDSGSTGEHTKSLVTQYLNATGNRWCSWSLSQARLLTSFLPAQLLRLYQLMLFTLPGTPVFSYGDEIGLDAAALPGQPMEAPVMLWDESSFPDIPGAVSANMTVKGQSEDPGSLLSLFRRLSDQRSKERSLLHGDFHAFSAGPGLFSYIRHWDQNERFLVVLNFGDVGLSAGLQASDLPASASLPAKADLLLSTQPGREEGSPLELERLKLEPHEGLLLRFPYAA

One assay addresses T1, human LAT1 (Homo sapiens, UniProt Q01650). The experiment in a line: cis-inhibition assay: inhibition of [3H]-gabapentin uptake into HEK-hLAT1 cells. The assay is classed as cell-based. Conditions: read-out: % Inhibition of [3H]-gabapentin uptake.
Turning to `N[C@@H](Cc1ccccc1)C(=O)O` [Compound 1a, phenylalanine, reference compound], the inhibition at 200 µM came out at 85 ± 0.6%.
As for `N[C@@H](Cc1ccc(O)cc1)C(=O)O` [Compound 1b, tyrosine], the inhibition at 200 µM is 68 ± 0.5%.
Turning to `N[C@@H](Cc1c[nH]c2ccccc12)C(=O)O` [Compound 1d, tryptophan, reference compound], the inhibition at 200 µM came out at 79 ± 0.6%.
As for `N=C(N)NCCC[C@H](N)C(=O)O` [Compound 1i, reference compound], the inhibition at 200 µM is 49 ± 2%.

In the next assay the target is T1, human LAT1.
Assay: not given
The assay is classed as cell-based. The settings on record: compound at 200 μM; pre-loaded HEK-hLAT1 cells; at least triplicate.
`N[C@@H](Cc1ccccc1)C(=O)O` [Compound 1a, phenylalanine, reference compound]: the “Efflux Rate of [3H]-gabapentin” value is 3.6 fmol/min and 3.6 ± 0.7 fmol/min.
Consider `N[C@@H](Cc1c[nH]c2ccccc12)C(=O)O` [Compound 1d, tryptophan, reference compound], for which the “Efflux Rate of [3H]-gabapentin” value was determined as 1.6 ± 0.3 fmol/min.
The same measure, in the same setting: to `CC[C@H](C)[C@H](N)C(=O)O` [Compound 1f, isoleucine, reference compound] belongs 2.5 ± 0.1 fmol/min; to `CSCC[C@H](N)C(=O)O` [Compound 1g, methionine, reference compound], 2.4 ± 0.1 fmol/min.
Turning to `N=C(N)NCCC[C@H](N)C(=O)O` [Compound 1i, reference compound], the “Efflux Rate of [3H]-gabapentin” value is recorded as 0.75 ± 0.1 fmol/min.
As for `CONC(=O)[C@@H](N)CC(C)C.Cl` [Compound 9e], the “Efflux Rate of [3H]-gabapentin” value is 2.1 fmol/min and 2.1 ± 0.2 fmol/min.
For the compound `CS(=O)(=O)NC(=O)[C@@H](N)Cc1ccccc1` [Compound 10a], the “Efflux Rate of [3H]-gabapentin” value came out at 0.61 ± 0.06 fmol/min.
Same read-out and setting: in the case of `CS(=O)(=O)NC(=O)[C@@H](N)Cc1ccc(O)cc1` [Compound 10b] it was 0.63 ± 0.03 fmol/min.
Consider `N[C@@H](Cc1ccccc1)c1nnn[nH]1` [Compound 11], for which the “Efflux Rate of [3H]-gabapentin” value amounted to 0.61 ± 0.01 fmol/min.
Take `N[C@@H](Cc1ccc(O)cc1)C(=O)NO` [Compound 12b]: the “Efflux Rate of [3H]-gabapentin” value was 1.0 ± 0.1 fmol/min.
For the compound `N[C@@H](Cc1c[nH]c2ccccc12)C(=O)NO` [Compound 12d], the “Efflux Rate of [3H]-gabapentin” value came to 1.0 ± 0.1 fmol/min.
Take `CC(C)C[C@H](N)C(=O)NO.Cl` [Compound 12e]: the “Efflux Rate of [3H]-gabapentin” value is 1.5 fmol/min and 1.5 ± 0.1 fmol/min.
Turning to `CC[C@H](C)[C@H](N)C(=O)NO.Cl` [Compound 12f], the “Efflux Rate of [3H]-gabapentin” value was 1.5 fmol/min and 1.5 ± 0.2 fmol/min.
Regarding `CSCC[C@H](N)C(=O)NO.Cl` [Compound 12g], the “Efflux Rate of [3H]-gabapentin” value is 1.1 ± 0.01 fmol/min.
For the compound `NCC(=O)NO` [Compound 12h], the “Efflux Rate of [3H]-gabapentin” value amounted to 0.70 ± 0.1 fmol/min.
As for `CC(C)C[C@H](N)C(N)=O.Cl` [Compound 13e, leucinamide], the “Efflux Rate of [3H]-gabapentin” value is 0.69 fmol/min and 0.69 ± 0.01 fmol/min.
